One compound from patent US9205073B2, “Method for treating virus infection using derivative of aniline” (CHINA MEDICAL UNIVERSITY, priority 2014, dated 2015) can be followed below.

Structures are written as SMILES. Where only a bound is given, the exact number is not on record here.

Series [1] can be described thus: MTT assay, cell survival / CC50 in BHK-21 cells. The conditions noted are these: hamster, read-out: concentration of 50% cytotoxicity (CC50). In kind it is cell-based. The procedure: (§1) In this example, 3-(4,5-dimethylthiazol-2-yl)-2,5-diphenyl tetrazolium bromide (MTT) was used to determine if the survival rate of BHK-21 cells, TE671cells and RD cells would be influenced when being treated with different concentrations of compound 1 prepared in Example 1. The concentration of 50% cytotoxicity (CC50) of compound 1 in BHK-21 cells, TE671cells and RD cells was also calculated.
(§2) MTT is a water-soluble tetrazolium salt which can react in the mitochondrial respiratory chain in living cells to metabolize and reduce the tetrazolium bromide shown in the structure of MTT and to form an water-insoluble purple crystal formazan under the reaction of succinate dehydrogenase (SDH) and cytochrome c (cyt c). The amount of the produced crystal is directly proportional to the number of living cells (because the SDH will disappear from dead cells, and thus, the MTT cannot be reduced). Furthermore, a mitochondrium is an organelle in cells that is most sensitive to the environment, and thus, the MTT assay can serve as a marker for the survival rate of cells treated by the drug.
(§3) BHK-21 cells, TE671cells and RD cells were cultured in a 96-well culture plate, respectively, with an initial density of 3×10^3 per well, and with 100 μl of 2% FBS-containing MEM medium per well. […] The absorbances of the samples were measured by ELISA at a wavelength of 570/630 nm.

Series [2] is described as follows: MTT assay, cell survival / CC50 in TE671 cells. The format is cell-based. Particulars: human, read-out: concentration of 50% cytotoxicity (CC50). The procedure:
as §1, §2, §3

A short description of series [3]: MTT assay, cell survival / CC50 in RD cells. The format is cell-based. The conditions noted are these: human, read-out: concentration of 50% cytotoxicity (CC50). The procedure: as §1, §2, §3
On the technique in general: Tetrazolium dyes change colour on reduction, which living cells bring about.

The subject of the next series is JEV T1P1. The series is described as follows: Viral plaque test, JEV T1P1 replication in TE671 cells. The format is cell-based, Japanese encephalitis virus. The conditions noted are these: treated for 36 or 48 hours. On the procedure: BHK-21 cells and/or TE671cells were separately cultured in a 24-well culture plate, with an initial density of 3×10^4 per well, and with 1 ml of 2% FBS-containing MEM medium per well. The cells were incubated in an incubator (37° C., 5% CO2) overnight, and the medium was removed until the cells adhered to the plate. Then, fresh 2% FBS-containing MEM medium was simultaneously added into each well of the culture plate. The cells were infected with a JEV T1P1 virus strain, wherein the amount of JEV T1P1 used to infect BHK-21 cells was a multiplicity of infection (M.O.I.)=0.1, and the amount of JEV T1P1 used to infect TE671 cells was M.O.I.=0.05. Different concentrations of compound 1 (final concentrations were 0, 2.5, 25 and 125 μM, respectively) were added into different wells. The culture plate was placed into an incubator (37° C., 5% CO2) and maintained therein. […]
BHK-21 cells were cultured in a 6-well culture plate at an initial density of 3×10^5 per well with 2 ml of 2% FBS-containing MEM medium per well. […] The cells were washed with clear water, and then the viral plaques were counted to calculate the virus titer.

In series [4] the test system is PKR, OAS, IFN-α and interferon receptor. Put plainly: Real-time PCR of anti-virus gene expression in JEV T1P1-infected TE671 cells. The conditions noted are these: JEV T1P1-infected TE671 cells (M.O.I.=1), 8 hours, compound 125. The format is cell-based. The procedure: TE671 cells were cultured in a 6-well culture plate in accordance with the experimental conditions. The next day, TE671 cells were infected with the JEV T1P1 virus strain (M.O.I.=1), and various concentrations (the final concentration of compound 1 were about 0 or 125 respectively) of compound 1 were added into different wells simultaneously. The cells were then incubated in an incubator (37° C., 5% CO2) for 8 hours, and then collected. The cells were re-suspended with PBS and precipitated by centrifugation (2000 rpm, 5 minutes), and then extracted by Pure Link RNA Mini Kit to obtain the RNA. If the obtained RNA was desired to be stored at −20° C., then the RNA would have to reverse transcribed into cDNA using the following reverse transcription PCR (RT-PCR) steps: i) 11 μl RNA was placed into a microtube, and put into a 55° C. […]
The expression of anti-virus genes was analyzed by real-time PCR. […] Then, the amount of fluorescence of each cycle was determined by ABI Prism 7500 software. The fold difference of each gene as compared to the control group was calculated by using Ct to calculate ΔCt and ΔΔCt (i.e., ΔCt=Ct. exp−Ct. control, ΔΔCt=ΔCt. exp−ΔCt. mock). Then, 2^−ΔΔCt can thereby be calculated.

With `CCOC(=O)C1=C(Nc2cc(C)cc(C)c2)OCC1=O` [Compound 1, ethyl 2-(3′,5′-dimethylanilino)-4-oxo-4,5-dihydrofuran-3-carboxylate], the figures for the CC50 at 48 h in series [1], in series [2] and in series [3] were greater than 500 µM, 189 µM and 222 µM, respectively. The “replication of JEV T1P1 (virus titer)” value in the series with JEV T1P1 was “significantly decreased”. For the same compound, in series [4], the “relative gene expression levels of PKR, OAS, IFN-α and interferon receptor” value is “increase”.
